Biological target: SARS2 coronavirus 3CL protease (Severe acute respiratory syndrome coronavirus 2 (2019-nCoV) (SARS-CoV-2), UniProt P0DTD1)
Experiment: SARS2 Coronavirus 3CL Protease Assay (FRET)
Type: biochemical
Details: SARS2 3CLPro FRET assay; 5 nM enzyme, 30 min pre-incubation with compound, 15 uM peptide substrate, 4 h room temperature

| SMILES | IC50 [nM] |
| --- | --- |
| COC(=O)N[C@H](C(=O)N1CC2(CCC(F)(F)CC2)CC1C(=O)N[C@@H](CCC(C)(F)F)C(=O)C(=O)NC1CC1)C(C)(C)C (single isomer, unassigned) [Example 56, Methyl ((S)-1-((R or S)-(3-(((S)-1-(cyclopropylamino)-6,6-difluoro-1,2-dioxoheptan-3-yl)carbamoyl)-8,8-difluoro-2-azaspiro[4.5]decan-2-yl)-3,3-dimethyl-1-oxobutan-2-yl)carbamate] | 291 |
| COC(=O)N[C@H](C(=O)N1CC2CC2C[C@H]1C(=O)N[C@@H](CCC(C)(F)F)C(=O)C(=O)NC1CC1)C(C)(C)C (single isomer, unassigned) [Example 84, methyl ((S)-1-((1S,4S,6S or 1R,4S,6R)-4-(((S)-1-(cyclopropylamino)-6,6-difluoro-1,2-dioxoheptan-3-yl)carbamoyl)-3-azabicyclo[4.1.0]heptan-3-yl)-3,3-dimethyl-1-oxobutan-2-yl)carbamate] | 96 |
| COC(=O)N[C@H](C(=O)N1C[C@@H]2CCC[C@@H]2[C@H]1C(=O)N[C@@H](CCC(C)(F)F)C(=O)C(=O)NCC(F)(F)F)C(C)(C)C [Example 119, methyl ((S)-1-((1S,3aR,6aS)-1-(((S)-6,6-difluoro-1,2-dioxo-1-((2,2,2-trifluoroethyl)amino)heptan-3-yl)carbamoyl)hexahydrocyclopenta[c]pyrrol-2(1H)-yl)-3,3-dimethyl-1-oxobutan-2-yl)carbamate] | 77 |
| COC(=O)N[C@H](C(=O)N1CC2(C(F)(F)F)CCCC2C1C(=O)N[C@@H](CCC(C)(F)F)C(=O)C(=O)NC1CC1)C(C)(C)C (single isomer, unassigned) [Example 98, methyl ((S)-1-((1S,3aS,6aS or 1R,3aR,6aR)-1-(((S)-1-(cyclopropylamino)-6,6-difluoro-1,2-dioxoheptan-3-yl)carbamoyl)-3a-(trifluoromethyl)hexahydrocyclopenta[c]pyrrol-2(1H)-yl)-3,3-dimethyl-1-oxobutan-2-yl)carbamate] | 77 |
| COC(=O)N[C@H](C(=O)N1CC2(CCCCC2)C[C@H]1C(=O)N[C@@H](CCC(C)(F)F)C(=O)C(=O)NC1CCCCC1)C(C)(C)C [Example 16, Methyl ((S)-1-((S)-3-(((S)-1-(cyclohexylamino)-6,6-difluoro-1,2-dioxoheptan-3-yl)carbamoyl)-2-azaspiro[4.5]decan-2-yl)-3,3-dimethyl-1-oxobutan-2-yl)carbamate] | 136 |
| COC(=O)N[C@H](C(=O)N1C[C@@H]2CCC[C@@H]2[C@H]1C(=O)N[C@@H](CCC(C)(F)F)C(=O)C(=O)NC1CC1)[C@@H](C)OC [Example 118, methyl ((2S,3R)-1-((1S,3aR,6aS)-1-(((S)-1-(cyclopropylamino)-6,6-difluoro-1,2-dioxoheptan-3-yl)carbamoyl)hexahydrocyclopenta[c]pyrrol-2(1H)-yl)-3-methoxy-1-oxobutan-2-yl)carbamate] | 14 |
| CNC(=O)C(=O)[C@H](CCC(C)(F)F)NC(=O)[C@@H]1C[C@H](C(F)(F)F)CCN1C(=O)[C@@H](NC(=O)OC)C(C)(C)C [Example 22, Methyl ((S)-1-((2S,4R)-2-(((S)-6,6-difluoro-1-(methylamino)-1,2-dioxoheptan-3-yl)carbamoyl)-4-(trifluoromethyl)piperidin-1-yl)-3,3-dimethyl-1-oxobutan-2-yl)carbamate] | 10 |
| COCCNC(=O)C(=O)[C@H](CCC(C)(F)F)NC(=O)[C@@H]1[C@H]2CCC[C@H]2CN1C(=O)[C@@H](NC(=O)OC)C(C)(C)C [Example 102, methyl ((S)-1-((1S,3aR,6aS)-1-(((S)-6,6-difluoro-1-((2-methoxyethyl)amino)-1,2-dioxoheptan-3-yl)carbamoyl)hexahydrocyclopenta[c]pyrrol-2(1H)-yl)-3,3-dimethyl-1-oxobutan-2-yl)carbamate] | 61 |
| COC(=O)N[C@H](C(=O)N1CC2(CCCCC2)C[C@H]1C(=O)N[C@@H](CCC(C)(F)F)C(=O)C(=O)NC1CC1)C1CCOCC1 [Example 74, Methyl ((S)-2-((S)-3-(((S)-1-(cyclopropylamino)-6,6-difluoro-1,2-dioxoheptan-3-yl)carbamoyl)-2-azaspiro[4.5]decan-2-yl)-2-ox0-1-(tetrahydro-2H-pyran-4-yl)ethyl)carbamate] | 69 |
| CNC(=O)C(=O)[C@H](CCC(C)(F)F)NC(=O)[C@@H]1[C@H]2CCC[C@H]2CN1C(=O)C(NC(=O)OC)C1(C(F)(F)F)CC1 (stereo partly drawn) [Example 88, methyl (2-((1S,3aR,6aS)-1-(((S)-6,6-difluoro-1-(methylamino)-1,2-dioxoheptan-3-yl)carbamoyl)hexahydrocyclopenta[c]pyrrol-2(1H)-yl)-2-oxo-1-(1-(trifluoromethyl)cyclopropy 1)ethyl)carbamate] | 21 |
| COC(=O)N[C@H](C(=O)N1CCC2(CCCC2)CC1C(=O)N[C@@H](CCC(C)(F)F)C(=O)C(=O)NC1CC1)C(C)(C)C (single isomer, unassigned) [Example 34, Methyl ((S)-1-(R or S)-(7-(((S)-1-(cyclopropylamino)-6,6-difluoro-1,2-dioxoheptan-3-yl)carbamoyl)-8-azaspiro[4.5]decan-8-yl)-3,3-dimethyl-1-oxobutan-2-yl)carbamateazaspiro[4.5]decan-8-yl)-3,3-dimethyl-1-oxobutan-2-yl)carbamate] | 7.4 |
| COC(=O)N[C@H](C(=O)N1CCC2(CC2)C[C@H]1C(=O)N[C@@H](CCC(C)(F)F)C(=O)C(N)=O)C(C)(C)C [Example 20, Methyl ((S)-1-((S)-5-(((S)-1-amino-6,6-difluoro-1,2-dioxoheptan-3-yl)carbamoyl)-6-azaspiro[2.5]octan-6-yl)-3,3-dimethyl-1-oxobutan-2-yl)carbamate] | 7.4 |
| COC(=O)N[C@H](C(=O)N1C[C@H]2[C@@H]([C@H]1C(=O)N[C@@H](CCC(C)(F)F)C(=O)C(N)=O)C(C)(C)C2(C)C)C(C)(C)C [Example 42, Methyl ((S)-1-((1R,2S,5S)-2-(((S)-1-amino-6,6-difluoro-1,2-dioxoheptan-3-yl)carbamoyl)-6,6,7,7-tetramethyl-3-azabicyclo[3.2.0]heptan-3-yl)-3,3-dimethyl-1-oxobutan-2-yl)carbamate] | 22 |
| COC(=O)N[C@H](C(=O)N1CC[C@@H](C)C[C@H]1C(=O)N[C@@H](CCC(C)(F)F)C(=O)C(=O)NC1CC1)C(C)(C)C [Example 96, methyl ((S)-1-((2S,4R)-2-(((S)-1-(cyclopropylamino)-6,6-difluoro-1,2-dioxoheptan-3-yl)carbamoyl)-4-methylpiperidin-1-yl)-3,3-dimethyl-1-oxobutan-2-yl)carbamate] | 15 |
| COC(=O)N[C@H](C(=O)N1CCC(OC(F)F)CC1C(=O)N[C@@H](CCC(C)(F)F)C(=O)C(=O)NC1CC1)C(C)(C)C (single isomer, unassigned) [Example 109, methyl ((S)-1-((2R,4R or 2S,4S)-2-(((S)-1-(cyclopropylamino)-6,6-difluoro-1,2-dioxoheptan-3-yl)carbamoyl)-4-(difluoromethoxy)piperidin-1-yl)-3,3-dimethyl-1-oxobutan-2-yl)carbamate] | 50 |
| CNC(=O)C(=O)[C@H](CCC(C)(F)F)NC(=O)[C@@H]1[C@H]2CCC[C@H]2CN1C(=O)C(NC(=O)OC)C1CC(F)(F)C1 (single isomer, unassigned) [Example 116, methyl ((S or R)-2-((1S,3aR,6aS)-1-(((S)-6,6-difluoro-1-(methylamino)-1,2-dioxoheptan-3-yl)carbamoyl)hexahydrocyclopenta[c]pyrrol-2(1H)-yl)-1-(3,3-difluorocyclobutyl)-2-oxoethyl)carbamate] | 16 |
| COC(=O)N[C@H](C(=O)N1CC(C2COC2)C[C@H]1C(=O)N[C@@H](CCC(C)(F)F)C(=O)C(=O)NC1CC1)C(C)(C)C (single isomer, unassigned) [Example 57, Methyl ((S)-1-((2S, 4(R or S))-2-(((S)-1-(cyclopropylamino)-6,6-difluoro-1,2-dioxoheptan-3-yl)carbamoyl)-4-(oxetan-3-yl)pyrrolidin-1-yl)-3,3-dimethyl-1-oxobutan-2-yl)carbamate] | 305 |
| CNC(=O)C(=O)[C@H](CCC(C)(F)F)NC(=O)[C@@H]1[C@@H](C(F)(F)F)CCN1C(=O)[C@@H](NC(=O)OC)C(C)(C)C [Example 81, methyl ((S)-1-((2S,3S)-2-(((S)-6,6-difluoro-1-(methylamino)-1,2-dioxoheptan-3-yl)carbamoyl)-3-(trifluoromethyl)pyrrolidin-1-yl)-3,3-dimethyl-1-oxobutan-2-yl)carbamate] | 44 |
| CNC(=O)C(=O)[C@H](CCC(C)(F)F)NC(=O)[C@@H]1[C@@H]2[C@H](CN1C(=O)[C@@H](NC(=O)OC)C(C)(C)C)CC2(F)F [Example 92, methyl ((S)-1-((1S,2S,5R)-2-(((S)-6,6-difluoro-1-(methylamino)-1,2-dioxoheptan-3-yl)carbamoyl)-7,7-difluoro-3-azabicyclo[3.2.0]heptan-3-yl)-3,3-dimethyl-1-oxobutan-2-yl)carbamate] | 29 |
| COC(=O)N[C@H](C(=O)N1C[C@H]2[C@@H]([C@H]1C(=O)N[C@@H](CCC(C)(F)F)C(=O)C(=O)NC1CC1)C21CCCCC1)C(C)(C)C [Example 69, Methyl ((S)-1-((1R,2S,5S)-2-(((S)-1-(cyclopropylamino)-6,6-difluoro-1,2-dioxoheptan-3-yl)carbamoyl)-3-azaspiro[bicyclo[3.1.0]hexane-6,1'-cyclohexan]-3-yl)-3,3-dimethyl-1-oxobutan-2-yl)carbamate] | 31 |
| COC(=O)N[C@H](C(=O)N1CC(C(F)(F)F)CCC1C(=O)N[C@@H](CCC(C)(F)F)C(=O)C(=O)NC1CC1)C(C)(C)C (single isomer, unassigned) [Example 82, methyl ((S)-1-((2S,5S or 2R,5R)-2-(((S)-1-(cyclopropylamino)-6,6-difluoro-1,2-dioxoheptan-3-yl)carbamoyl)-5-(trifluoromethyl)piperidin-1-yl)-3,3-dimethyl-1-oxobutan-2-yl)carbamate] | 51 |
